US7378409B2, “Substituted cycloalkylamine derivatives as modulators of chemokine receptor activity” (Bristol-Myers Squibb Company, priority 2003, dated 2008)

Assay: Long-term storage stability of the isolated salt
Assay type: physicochemical
Settings: TFA salt of the title compound; converted to free base for that reason
Description: Example 3a, Step 5: A solution of (1R,3R,4S)-3-butyl-N1-isopropyl-N1-methylcyclohexane-1,4-diamine (58 mg, 0.25 mmol) in methylene chloride (5 mL) was charged successively with HATU (113 mg, 0.29 mmol), 2-(5-(trifluoromethyl)-1H-indazol-3-ylamino)acetic acid (58 mg, 0.22 mmol), and N,N-diisopropylethylamine (0.22 mL, 1.24 mmol). The reaction was stirred for 16 h at RT, concentrated in vacuo, and diluted with EtOAc. The organic phase was washed successively with sat. NaHCO3, water, 1N HCl, water, and brine before being dried (sodium sulfate), filtered, and concentrated in vacuo. […] Accordingly, this material was dissolved in EtOAc and the organic phase was washed with sat. NaHCO3 and brine before being dried (sodium sulfate), filtered, and concentrated in vacuo to afford the free base of the title compound, N-((1S,2R,4R)-2-butyl-4-(isopropyl(methyl)amino)cyclohexyl)-2-(5-(trifluoromethyl)-1H-indazol-3-ylamino)acetamide. MS found: (M+H)^+=468.4.

stability to long-term storage: unstable to long-term storage
SMILES: CCCC[C@@H]1C[C@H](N(C)C(C)C)CC[C@@H]1NC(=O)CNc1n[nH]c2ccc(C(F)(F)F)cc12 [Example 3a, N-((1S,2R,4R)-2-butyl-4-(isopropyl(methyl)amino)cyclohexyl)-2-(5-(trifluoromethyl)-1H-indazol-3-ylamino)acetamide]
